Key:
Type in all cases: in vivo, rat
[1] = tested on: isolated thoracic aorta of Dahl salt-sensitive rats; test: Endothelial function of isolated thoracic aorta, Magnus apparatus, acetylcholine relaxation response; conditions: 12 weeks dosing; aorta ring constricted with 0.3 μM phenylephrine, cumulative acetylcholine; mixed effect model, Bonferroni
Method: (§1) Drug efficacy was evaluated on Dahl salt-sensitive rats (Dahl-Iwai S, 7 weeks old, Japan SLC, Inc.) fed on a 8% salt-containing HFD (High Fat Diet: 29.4% fat content, CLEA Japan, Inc.) (4 groups in total: (1) control group, (2) pemafibrate (0.5 mg/kg/day) single-agent administration group, (3) pitavastatin (0.3 mg/kg/day) single-agent administration group, and (4) pemafibrate (0.5 mg/kg/day)+pitavastatin (0.3 mg/kg/day) combined administration group, with 10 animals for each group). Twelve weeks after the start of administration, the animals were euthanized after measuring their blood pressure, and the weight of the isolated hearts and the endothelial function of the isolated thoracic aortas were measured with a Magnus apparatus. The measurement with the Magnus apparatus was performed according to the standard method. […] Then, acetylcholine (10^−9 to 10^−5 M) was added cumulatively, and the relaxation response was measured. Finally, […] was obtained with 100 μM papaverine, and the relaxation rate was evaluated. When measuring with the Magnus apparatus, the blood vessels of normal rats were also evaluated in addition to the four groups, and were used as a control group. In addition, the expression level of phosphorylated endothelial nitric oxide synthase (phospho-eNOS) was evaluated by Western blotting according to the standard method, using the isolated aortas.

[2] = tested on: phosphorylated endothelial nitric oxide synthase (phospho-eNOS); test: Expression level of phospho-eNOS in isolated aortas by Western blotting; conditions: 12 weeks dosing
Method: as §1

[3] = tested on: Dahl salt-sensitive rats; test: Weight of isolated hearts of Dahl salt-sensitive rats on high-salt high-fat diet; conditions: for heart weight: 12 weeks after start, mean±standard deviation, pemafibrate 0.5 mg/kg/day, pitavastatin 0.3 mg/kg/day, salt-containing HFD, control 1.74±0.1; for change in heart weight compared with control group: 12 weeks, analysis of variance/Bonferroni
Method: (§2) Drug efficacy was evaluated on Dahl salt-sensitive rats (Dahl-Iwai S, 7 weeks old, Japan SLC, Inc.) fed on a 8% salt-containing HFD (High Fat Diet: 29.4% fat content, CLEA Japan, Inc.) (4 groups in total: (1) control group, (2) pemafibrate (0.5 mg/kg/day) single-agent administration group, (3) pitavastatin (0.3 mg/kg/day) single-agent administration group, and (4) pemafibrate (0.5 mg/kg/day)+pitavastatin (0.3 mg/kg/day) combined administration group, with 10 animals for each group). Twelve weeks after the start of administration, the animals were euthanized after measuring their blood pressure, and the weight of the isolated hearts and the endothelial function of the isolated thoracic aortas were measured with a Magnus apparatus. The measurement with the Magnus apparatus was performed according to the standard method. That is, a ring preparation of the isolated thoracic aorta was prepared, suspended in a Magnus tube in Krebs-Henseleit solution, loaded with a tension of 1 g, and constricted with 0.3 μM phenylephrine. Then, acetylcholine (10^−9 to 10^−5 M) was added cumulatively, and the relaxation response was measured. Finally, […] was obtained with 100 μM papaverine, and the relaxation rate was evaluated. When measuring with the Magnus apparatus, the blood vessels of normal rats were also evaluated in addition to the four groups, and were used as a control group. In addition, the expression level of phosphorylated endothelial nitric oxide synthase (phospho-eNOS) was evaluated by Western blotting according to the standard method, using the isolated aortas.

[4] = tested on: Dahl salt-sensitive rats; test: Blood pressure in Dahl salt-sensitive rats on high-salt high-fat diet; conditions: for mean blood pressure: 12 weeks after start, mean±standard deviation, pemafibrate 0.5 mg/kg/day, pitavastatin 0.3 mg/kg/day, salt-containing HFD, control 193.6±6.6; for change in blood pressure compared with control group: 12 weeks, analysis of variance/Bonferroni
Method: as §2

Structure (SMILES)	vasodilatory responsiveness as a whole compared with control group [1]	expression level of phospho-eNOS compared to control group [2]	heart weight [3]	change in heart weight compared with control group [3]	mean blood pressure [4]	change in blood pressure compared with control group [4]
CC[C@@H](Oc1cccc(CN(CCCOc2ccc(OC)cc2)c2nc3ccccc3o2)c1)C(=O)O [pemafibrate, (2R)-2-[3-({1,3-benzoxazol-2-yl[3-(4-methoxyphenoxy)propyl]amino}methyl)phenoxy]butanoic acid]	showed a trend toward improvement in vasodilatory responsiveness	tendency to increase	1.48 ± 0.1 g	significantly lower than that of the control	192.6±8.3 mmHg	no change was observed
O=C(O)C[C@H](O)C[C@H](O)/C=C/c1c(C2CC2)nc2ccccc2c1-c1ccc(F)cc1 [pitavastatin]	showed a trend toward improvement in vasodilatory responsiveness	tendency to increase	1.76 ± 0.2 g	no change compared to the control	196.9±8.4 mmHg	no change was observed

From patent US20210290598A1, “MEDICAMENT USEFUL FOR CARDIOVASCULAR DISEASE” (NATIONAL UNIVERSITY CORPORATION OKAYAMA UNIVERSITY, priority 2018, published 2021)
